Assay results: US20060111342A1, “Insecticidal tricyclic derivatives” (priority 2002, published 2006)

Tests used:
[1] = test system: cotton aphid (Aphis gossypii); assay: Cotton aphid test in the same manner, more definitive percent mortality at selected rates and exposure times (Table 3); type: in vivo
Experimental: (§1) The compounds of formula I useful in the present invention were tested for insecticidal activity by observing mortality in a population of cotton aphid (Aphis gossypii) on treated cotton plants caused by a test compound, when compared to like populations of cotton aphid on untreated plants. These tests were conducted in the following manner:
For each rate of application of test compound, two seven-to-ten days old cotton seedlings (Gossypium hirsutium) grown in 7.6 cm diameter pots were selected for the test. Each test plant was infested with about 120 adult cotton aphids by placing onto each test plant cuttings of leaves from cotton plants grown in a cotton aphid colony. Once infested, the test plants were maintained for up to about 12 hours to allow complete translocation of the aphids onto the test plant. A solution comprising 1000 part per million (ppm) of each test compound was prepared by dissolving 10 milligrams of the test compound in 1 mL of acetone. Each solution was then diluted with 9 mL of a solution of 0.03 mL of polyoxyethylene(10) isooctylphenyl ether in 100 mL of water. About 2.5 mL of solution of each test compound was needed to spray each replicate of test plant (5 mL total for each test compound). If needed, the solution of 1000 ppm of test compound was serially diluted with a solution of 10% acetone and 300 ppm of polyoxyethylene(10) isooctylphenyl ether in water to provide solutions of each test compound for lower rates of application, for example, 300 ppm, 100 ppm, 30 ppm, or 10 ppm. Each replicate of test plant was sprayed with the solutions of test compound until run-off on both the upper and lower surfaces of the leaves. All the test plants were sprayed using a DeVilbus Atomizer Model 152 (Sunrise Medical, Carlsbad, Calif.) at a pressure of about 0.63-0.74 kilogram per square centimeter from a distance of about 30.5 centimeters from the test plants. For comparison purposes, a solution of a standard, such as amitraz or demethylchlordimeform (DCDM), prepared in a manner analogous to that set forth above, as well as a solution of 10% acetone and 300 ppm of polyoxyethylene(10) isooctylphenyl ether in water containing no test compound were also sprayed onto test plants. Upon completion of spraying the solutions of test compound, the solution of standard, and the solution containing no test compound, the plants were allowed to dry. […] After this time, each plant was assessed for percent mortality caused by the test compound when compared to the population of aphids that was infested onto the test plants prior to treatment with test compound. […] If there was 75% mortality or greater of the cotton aphid, a test compound was designated as being more insecticidally active (A).
In a test conducted in the same manner as set forth above, certain compounds of formula I were tested to determine a more definitive percent mortality of cotton aphid.

[2] = test system: cotton aphid (Aphis gossypii); assay: Cotton aphid mortality on sprayed cotton plants, assessed after 24 hours (Table 2); type: in vivo; conditions: read-out: Mortality of Cotton Aphid On Cotton Plants: More Than 75% Mortality (A)
Experimental: as §1
For each rate of application of test compound, two seven-to-ten days old cotton seedlings (Gossypium hirsutium) grown in 7.6 cm diameter pots were selected for the test. Each test plant was infested with about 120 adult cotton aphids by placing onto each test plant cuttings of leaves from cotton plants grown in a cotton aphid colony. Once infested, the test plants were maintained for up to about 12 hours to allow complete translocation of the aphids onto the test plant. A solution comprising 1000 part per million (ppm) of each test compound was prepared by dissolving 10 milligrams of the test compound in 1 mL of acetone. Each solution was then diluted with 9 mL of a solution of 0.03 mL of polyoxyethylene(10) isooctylphenyl ether in 100 mL of water. […] After this time, each plant was assessed for percent mortality caused by the test compound when compared to the population of aphids that was infested onto the test plants prior to treatment with test compound. […]

tobacco hornworm = conditions: in vivo; cited from earlier work

Compound: CN1CCC(=C2c3ccccc3Oc3ccccc32)CC1 [Compound 8, 9-(1-methyl-4-piperidylidene)xanthene]
- mortality at 100 ppm ([1]; Aphis gossypii, 96 h, read-out: Percent Mortality of Cotton Aphid on Cotton Plants): 88%
- mortality at 100 ppm [2]: > 75%

Compound: CSc1ccc2c(c1)C(N1CCN(Cc3ccncc3)CC1)Cc1ccccc1S2 (stereo not shown) [Compound 173]
- Percent Mortality of Cotton Aphid on Cotton Plants ([1]; 1000 ppm, 96 hours exposure): 82%

Compound: CSc1ccc2c(c1)C(N1CCCN(C)CC1)Cc1ccccc1S2 (stereo not shown) [Compound 183]
- Percent Mortality of Cotton Aphid on Cotton Plants ([1]; 1000 ppm, 168 hours exposure): 100%

Compound: CN1CCCN(C2Cc3ccccc3Sc3ccc(OC(F)(F)F)cc32)CC1 (stereo not shown) [Compound 185]
- Percent Mortality of Cotton Aphid on Cotton Plants ([1]; 1000 ppm, 168 hours exposure): 100%

Compound: CN1CCCN(C2Cc3ccccc3Oc3ccc(OC(F)(F)F)cc32)CC1 (stereo not shown) [Compound 186]
- Percent Mortality of Cotton Aphid on Cotton Plants ([1]; 100 ppm, 168 hours exposure): 100%

Compound: CN1CCN(C2=Nc3ccccc3Sc3ccc(Cl)cc32)CC1 [Compound 189]
- Percent Mortality of Cotton Aphid on Cotton Plants ([1]; 1000 ppm, 168 hours exposure): 55%

Compound: CN1CCN(C2=Nc3ccccc3Sc3ccc(OC(F)(F)F)cc32)CC1 [Compound 194]
- Percent Mortality of Cotton Aphid on Cotton Plants ([1]; 100 ppm, 168 hours exposure): 51%

Compound: COc1ccc2c(c1)N(CCCN(C)C)c1ccccc1S2 [Compound 205]
- Percent Mortality of Cotton Aphid on Cotton Plants ([1]; 500 ppm, 72 hours exposure): 40%

Compound: CN1CCN(CCCN2c3ccccc3Sc3ccc(C(F)(F)F)cc32)CC1.Cl.Cl [Compound 207]
- Percent Mortality of Cotton Aphid on Cotton Plants ([1]; 1000 ppm, 72 hours exposure): 25%

Compound: Cl.Cl.OCCN1CCN(CCCN2c3ccccc3Sc3ccc(C(F)(F)F)cc32)CC1 [Compound 208]
- Percent Mortality of Cotton Aphid on Cotton Plants ([1]; 500 ppm, 72 hours exposure): 43%

Compound: CNCCCN1c2ccccc2CCc2ccccc21 [Desipramine, desipramine]
- anti-feeding activity against tobacco hornworm (tobacco hornworm): anti-feeding activity

Compound: CN(C)CCC=C1c2ccccc2CCc2ccccc21 [amitriptyline]
- anti-feeding activity against tobacco hornworm (tobacco hornworm): anti-feeding activity
